How the values were obtained:
[1] = target: T1, 5-hydroxytryptamine receptor 4 (Homo sapiens, UniProt Q13639); assay: Binding affinity against 5-Hydroxytryptamine 4 receptor
Rattus norvegicus [2] = organism: Rattus norvegicus; assay: Tested for maximum response in depolarization of isolated rat vagus nerve measured at dose 10 uM; format: functional
[3] = target: T1, 5-hydroxytryptamine receptor 4; assay: Binding affinity against 5-hydroxytryptamine 4 receptor
[4] = target: T2, Muscarinic acetylcholine receptor M4 (Homo sapiens, UniProt P08173); assay: Binding affinity against Muscarinic acetylcholine receptor M4
T2 sequence (P08173 whole entry): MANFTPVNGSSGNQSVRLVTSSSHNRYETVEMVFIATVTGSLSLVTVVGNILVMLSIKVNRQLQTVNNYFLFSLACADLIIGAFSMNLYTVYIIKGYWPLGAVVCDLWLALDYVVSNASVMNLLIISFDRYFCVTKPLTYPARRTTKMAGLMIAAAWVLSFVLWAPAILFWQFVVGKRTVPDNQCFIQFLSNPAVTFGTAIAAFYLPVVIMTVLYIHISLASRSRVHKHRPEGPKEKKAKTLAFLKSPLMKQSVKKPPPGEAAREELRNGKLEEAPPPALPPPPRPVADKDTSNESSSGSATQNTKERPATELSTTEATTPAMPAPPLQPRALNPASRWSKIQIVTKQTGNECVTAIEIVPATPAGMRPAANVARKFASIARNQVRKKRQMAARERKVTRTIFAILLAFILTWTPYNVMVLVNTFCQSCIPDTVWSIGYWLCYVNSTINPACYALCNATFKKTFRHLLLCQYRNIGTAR

Rattus norvegicus [5] = organism: Rattus norvegicus; assay: Tested for maximum response in depolarization of isolated rat vagus nerve measured at dose 1 uM; format: functional

T1 sequence (Q13639 whole entry): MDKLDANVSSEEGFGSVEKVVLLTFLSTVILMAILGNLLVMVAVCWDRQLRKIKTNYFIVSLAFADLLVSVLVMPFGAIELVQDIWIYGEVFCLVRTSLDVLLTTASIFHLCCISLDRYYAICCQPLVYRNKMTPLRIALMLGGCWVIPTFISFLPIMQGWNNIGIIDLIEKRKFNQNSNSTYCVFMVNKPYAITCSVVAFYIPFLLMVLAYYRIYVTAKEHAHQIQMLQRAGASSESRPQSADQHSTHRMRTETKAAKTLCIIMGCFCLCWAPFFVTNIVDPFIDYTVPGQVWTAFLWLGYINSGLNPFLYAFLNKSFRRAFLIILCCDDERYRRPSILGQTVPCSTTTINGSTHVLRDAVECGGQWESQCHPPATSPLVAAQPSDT

## Cn1cc(C(=O)C(=O)N[C@@H]2CN3CCC2CC3)c2ccccc21
[1]
  Ki: 398 nM
Rattus norvegicus [2]
  Max response: 167 uV

## Cn1cc(C(=O)C(=O)N[C@H]2CN3CCC2CC3)c2ccccc21
[3]
  Ki: 251 nM
[4]
  Ki: 25.1 µM
Rattus norvegicus [5]
  Max response: 140 uV

Reference: ChEMBL document CHEMBL1128795, “N-(Quinuclidin-3-yl)-2-(1-methyl-1H-indol-3-yl)-2-oxo-acetamide: a high affinity 5-HT3 receptor partial agonist” (Bioorg Med Chem Lett, 1995)
